System: AhR
Assay: Receptor capture assay, end-point PCR with anti-DIG time-resolved fluorescence detection, Hepa 1c1c7 cell extract
Assay type: biochemical, murine
Method: End-point PCR may also be utilized for dioxins. Calibrators containing 10, 100, 1000 fmol of 2,3,7,8-tetrachlorodibenzo-p-dioxin (TCDD) were prepared and 1 μl of each calibrator was dispensed into a glass test tube.
An extract from Hepa 1c1c7 cells was prepared as described by Example 1 to provide AhR for the assays. 100 μl NEAT to 0.5 μl of Hepa 1c1c7 cell extract diluted in Assay Buffer was added to each tube, thoroughly mixed, and the tubes were capped, or covered with Parafilm™. The samples were then incubated at room temperature to 37° C. for 30 min to 2 hr. Salt and salmon sperm DNA was then added to the AhR reaction medium in concentrations of 50 mM to 200 mM and 5 to 100 μg/ml, respectively. The samples were then incubated for a period ranging from 0-20 minutes at room temperature. Nucleic acid-tracer (1 nM) was added and mixed gently to allow complex formation between activated AhR and nucleic acid-tracer, where TCCD was present. The reaction tubes were incubated for a time ranging from 10 min to 1 hour, at room temperature.
Capture Strips coated with anti-ARNT antibody were prepared as described in Example 1. An aliquot of AhR reaction medium (25 to 100 μl) from each glass tube was then transferred to a corresponding well of the Capture Strip. The Capture Strips were incubated for an additional 30 min to 1 hour at room temperature, with shaking. Unbound nucleic acid-tracer was rigorously removed by washing wells five times with Wash Buffer B, optionally soaking wells for 30 sec-5 min with wash buffer during each cycle. The strips may be shaken during the soak step if desired. The strips were washed twice with water, with all liquids aspirated at the finish.
The nucleic acid-tracer remaining in the Capture Strip was PCR amplified by the following method: A PCR Master Mix was assembled with the following final concentrations: 1×PCR buffer with 1.5 mM MgCl2, 0.2 mM dATP, dCTP, dGTP, 0.15 mM dTTP, 0.05 mM DIG-dUTP (Roche, Indianapolis, Ind.), 0.5 μM each primer (PRI 1A and PRI 1B), […] Taq polymerase. The Master Mix was aliquoted 30-50 μl per well, then tape applied to seal the wells. The thermocycler profile was: 94° C., 20 sec, 15 cycles of [94° C., 30 sec, 52° C., 30 sec, 72° C. 30 sec], then 72° C., 30 sec and chilled to 4° C.
Ten μl of PCR sample was assayed by ELISA-PCR with anti-DIG detection as follows.
The PCR sample was diluted to 30 μl with water in 0.2 ml tube. The sample was heated 95° C. for 3-5 min. The immobilization (capture) probe was:
The probe was diluted to 10 nM in Hybridization Buffer (0.5× Assay Buffer, 0.5 M NaCl). The probe (100 μl=1 pmol) was then added to the hot samples, mixed, and incubated at 37° C. for 45 min.
The sample was transferred to a pre-washed streptavidin-coated microtiter wells in the form of strips or plates obtained from DELFIA catalog number 4009-0010 (Wallac, Finland) and shaken for 45 min. at room temperature. Strips or plates were washed three times with Wallac Wash Buffer (DELFIA wash concentrate, catalog number 13800865, Wallac, Finland). The Wallac Wash Buffer (1×) for the automated plate washer was made from 25× Wash Concentrate (Wallac), which contains Tris, NaCl, and TWEEN-20.
Anti-DIG antibody (Sigma Chemical Co, St. Louis, Mo.) was diluted 1/1000 in Assay Buffer and 100 μl added to each well, and strips were shaken for 30 min. […] Samples were counted on a Victor 2 multilabel counter/plate reader (catalog number 1420-012, Wallac, Finland) using time-resolved fluorescence. […]

| Compound | DNA signal over DMSO control (BNF in DMSO added to Hepa 1c1c7 cell extract) | Counts (time-resolved fluorescence) (TCDD 1 fmol) | Counts (time-resolved fluorescence) (TCDD 10 fmol) | Counts (time-resolved fluorescence) (TCDD 100 fmol) | Counts (time-resolved fluorescence) (TCDD 1000 fmol) |
| --- | --- | --- | --- | --- | --- |
| O=c1cc(-c2ccccc2)oc2ccc3ccccc3c12 [BNF, beta-naphthoflavone] | significantly and reproducibly increased the DNA signal |  |  |  |  |
| Clc1cc2c(cc1Cl)Oc1cc(Cl)c(Cl)cc1O2 [TCDD, 2,3,7,8-tetrachlorodibenzo-p-dioxin] |  | 5770 | 17287 | 100645 | 504879 |
